ChEMBL document CHEMBL3120081, “Imidazopyridazine hepatitis C virus polymerase inhibitors. Structure-activity relationship studies and the discovery of a novel, traceless prodrug mechanism” (J Med Chem, 2014)
In brackets after ≈: the same amount, converted by molar mass. Values belong to the compound of their own block, whether it stands above or below them.

Columns and labels:
Hepatitis C virus [1] = assay: Antiviral activity against Hepatitis C virus genotype 1b infected in human HuH7 cells after 48 hrs by luciferase reporter gene assay; type: functional, organism-based, Hepacivirus hominis; conditions: Huh-7, 48 h
Hepatitis C virus [2] = assay: Antiviral activity against Hepatitis C virus genotype 1a infected in human HuH7 cells after 48 hrs by luciferase reporter gene assay; type: functional, organism-based, Hepacivirus hominis; conditions: subtype 1a, Huh-7, 48 h
[3] = Cmax in CD rat at 5 mg/kg by LC/MS/MS analysis; type: ADME, organism-based; parameters: dose 5 mg/kg; conditions: in vivo
[4] = AUC in CD rat at 5 mg/kg by LC/MS/MS analysis; type: ADME, organism-based; parameters: dose 5 mg/kg; conditions: plasma
[5] = target: T1, Voltage-gated inwardly rectifying potassium channel KCNH2 (Homo sapiens, UniProt Q12809); assay: Inhibition of human ERG by patch-clamp technique
T1 sequence (Q12809 whole entry): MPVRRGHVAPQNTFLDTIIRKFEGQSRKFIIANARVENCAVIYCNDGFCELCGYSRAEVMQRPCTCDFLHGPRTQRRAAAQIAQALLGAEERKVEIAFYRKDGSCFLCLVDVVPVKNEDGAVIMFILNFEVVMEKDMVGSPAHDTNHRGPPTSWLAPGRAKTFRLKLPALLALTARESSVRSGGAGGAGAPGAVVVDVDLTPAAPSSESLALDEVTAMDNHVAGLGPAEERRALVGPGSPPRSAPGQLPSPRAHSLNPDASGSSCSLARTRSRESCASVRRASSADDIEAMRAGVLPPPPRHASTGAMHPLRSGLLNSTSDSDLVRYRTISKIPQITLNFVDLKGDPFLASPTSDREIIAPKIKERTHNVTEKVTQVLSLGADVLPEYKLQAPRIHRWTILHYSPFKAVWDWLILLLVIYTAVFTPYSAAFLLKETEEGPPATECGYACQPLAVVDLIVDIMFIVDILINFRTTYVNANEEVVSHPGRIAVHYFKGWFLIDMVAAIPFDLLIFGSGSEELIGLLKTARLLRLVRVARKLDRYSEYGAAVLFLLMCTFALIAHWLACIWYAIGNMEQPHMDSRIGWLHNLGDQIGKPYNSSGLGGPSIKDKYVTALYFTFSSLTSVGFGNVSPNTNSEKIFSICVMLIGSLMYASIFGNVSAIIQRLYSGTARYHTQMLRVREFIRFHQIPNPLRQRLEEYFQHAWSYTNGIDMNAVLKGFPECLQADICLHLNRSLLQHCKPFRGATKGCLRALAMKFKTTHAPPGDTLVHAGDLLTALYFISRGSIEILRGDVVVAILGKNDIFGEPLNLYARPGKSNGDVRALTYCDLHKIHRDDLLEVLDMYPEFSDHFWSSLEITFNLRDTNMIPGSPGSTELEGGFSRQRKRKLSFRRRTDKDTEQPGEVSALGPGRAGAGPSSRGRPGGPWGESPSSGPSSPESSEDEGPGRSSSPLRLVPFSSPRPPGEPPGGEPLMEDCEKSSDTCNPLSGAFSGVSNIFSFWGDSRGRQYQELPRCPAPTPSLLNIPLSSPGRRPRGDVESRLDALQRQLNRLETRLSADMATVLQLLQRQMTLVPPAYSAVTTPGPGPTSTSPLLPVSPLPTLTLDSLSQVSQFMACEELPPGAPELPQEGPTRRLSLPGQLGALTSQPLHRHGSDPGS

[6] = Solubility of the compound in neutral aqueous media at pH 6.8; type: physicochemical
[7] = AUC in CD rat at 300 mg/kg by LC/MS/MS analysis; type: ADME, organism-based; parameters: dose 300 mg/kg; conditions: plasma
[8] = AUC in CD rat at 100 mg/kg by LC/MS/MS analysis; type: ADME, organism-based; parameters: dose 100 mg/kg; conditions: plasma
[9] = AUC in CD rat at 30 mg/kg by LC/MS/MS analysis; type: ADME, organism-based; parameters: dose 30 mg/kg; conditions: plasma
[10] = AUC in CD rat at 10 mg/kg by LC/MS/MS analysis; type: ADME, organism-based; parameters: dose 10 mg/kg; conditions: plasma
[11] = Cmax in CD rat at 300 mg/kg by LC/MS/MS analysis; type: ADME, organism-based; parameters: dose 300 mg/kg; conditions: in vivo
[12] = Cmax in CD rat at 100 mg/kg by LC/MS/MS analysis; type: ADME, organism-based; parameters: dose 100 mg/kg; conditions: in vivo
[13] = Cmax in CD rat at 30 mg/kg by LC/MS/MS analysis; type: ADME, organism-based; parameters: dose 30 mg/kg; conditions: in vivo
[14] = Cmax in CD rat at 10 mg/kg by LC/MS/MS analysis; type: ADME, organism-based; parameters: dose 10 mg/kg; conditions: in vivo
[15] = Oral bioavailability in CD rat at 1 mg/kg by LC/MS/MS analysis; type: ADME, organism-based; conditions: in vivo
[16] = AUC in CD rat at 1 mg/kg, po by LC/MS/MS analysis; type: ADME, organism-based; parameters: dose 1 mg/kg, route oral; conditions: plasma
[17] = Half life in CD rat at 0.5 mg/kg, iv by LC/MS/MS analysis; type: ADME, organism-based; parameters: dose 0.5 mg/kg, route intravenous; conditions: in vivo
[18] = Volume of distribution in CD rat at 0.5 mg/kg, iv by LC/MS/MS analysis; type: ADME, organism-based; parameters: dose 0.5 mg/kg, route intravenous; conditions: in vivo
[19] = Clearance in CD rat at 0.5 mg/kg, iv by LC/MS/MS analysis; type: ADME, organism-based; parameters: dose 0.5 mg/kg, route intravenous; conditions: in vivo
[20] = Intrinsic clearance in CD rat microsomes; type: ADME, Microsome
[21] = target: T1, Voltage-gated inwardly rectifying potassium channel KCNH2; assay: Inhibition of human ERG expressed in CHO cells
Canis familiaris = assay: Hepatotoxicity in beagle dog at 10 to 600 mg/kg/day, po qd for 7 days; type: toxicity, organism-based, Canis lupus familiaris; parameters: route oral; conditions: in vivo, 168 h
Rattus norvegicus = assay: Toxicity in rat at 10 to 1000 mg/kg/day, po qd for 7 days; type: organism-based; parameters: route oral; conditions: in vivo, 168 h
[22] = AUC in CD rat at 1000 mg/kg by LC/MS/MS analysis; type: ADME, organism-based; parameters: dose 1000 mg/kg; conditions: plasma
[23] = Oral bioavailability in beagle dog at 5 mg/kg by LC/MS/MS analysis; type: ADME, organism-based, Canis lupus familiaris; conditions: in vivo
[24] = Oral bioavailability in CD rat at 5 mg/kg by LC/MS/MS analysis; type: ADME, organism-based; conditions: in vivo
[25] = Solubility of the compound in phosphate buffered saline at pH 7.4 after 1 hr by chemiluminescence nitrogen detection assay; type: physicochemical

Compound: CC(C)(c1cc(-c2ccc(C(F)(F)F)cc2C(F)(F)F)no1)n1cc2nc(-c3cccc(F)c3F)nc-2cn1
EC50 (Hepatitis C virus [1]): 1500 nM
EC50 (Hepatitis C virus [2]): 5400 nM

Compound: Cc1ccc(-c2cc(Cn3cc4nc(-c5cccc(F)c5F)nc-4cn3)on2)cc1
EC50 (Hepatitis C virus [1]): 23 nM
EC50 (Hepatitis C virus [2]): 110 nM

Compound: CCCOc1ccc(-c2cnc(Cn3cc4nc(-c5cccc(F)c5F)nc-4cn3)cn2)c(C(F)(F)F)c1
EC50 (Hepatitis C virus [1]): 30 nM
EC50 (Hepatitis C virus [2]): 60 nM

Compound: Fc1cccc(-c2nc3cnn(Cc4ccc(-c5ccc(C(F)(F)F)cc5C(F)(F)F)cn4)cc-3n2)c1F
EC50 (Hepatitis C virus [1]): 40 nM
EC50 (Hepatitis C virus [2]): 300 nM

Compound: FC(F)(F)c1ccc(-c2cc(Cn3cc4nc(-c5cccs5)nc-4cn3)on2)c(C(F)(F)F)c1
EC50 (Hepatitis C virus [1]): 1750 nM

Compound: Fc1ccccc1-c1nc2cnn(Cc3cc(-c4ccc(Cl)cc4)no3)cc-2n1
EC50 (Hepatitis C virus [1]): 170 nM

Compound: Fc1ccccc1-c1nc2ccn(Cc3cc(-c4ccc(C(F)(F)F)cc4C(F)(F)F)no3)cc-2n1
IC50 [21]: 794 nM

Compound: CCCOc1ccc(-c2cc(C(C(=O)OCCOCCO)n3cc4nc(-c5cccc(F)c5F)nc-4cn3)on2)c(C(F)(F)F)c1 (centres undefined)
Activity (Canis familiaris): Toxic
Activity (Rattus norvegicus): Non-toxic
AUC [22]: 325000 ng·h/mL
bioavailability [23]: 91%
bioavailability [24]: 98%
solubility kinetic at 1 h [25]: 24 µM (≈ 15.5 µg/mL)
EC50 (Hepatitis C virus [1]): 3 nM
EC50 (Hepatitis C virus [2]): 11 nM

Now from value to compound, other results behind:

EC50 (Hepatitis C virus [1]): 5 nM
Compound: Fc1ccccc1-c1nc2ccn(Cc3ccc(-c4ccc(C(F)(F)F)cc4C(F)(F)F)nn3)cc-2n1 [TEGOBUVIR]

EC50 (Hepatitis C virus [1]): 7000 nM
EC50 (Hepatitis C virus [2]): > 50000 nM
Compound: Fc1cccc(-c2nc3cnn(Cc4cn(-c5ccc(C(F)(F)F)cc5C(F)(F)F)cn4)cc-3n2)c1F

Cmax [3]: 1100 ng/mL
AUC [4]: 8000 ng·h/mL
solubility [6]: 9 µg/mL (≈ 16.8 µM)
AUC [7]: 280000 ng·h/mL
AUC [8]: 69000 ng·h/mL
AUC [9]: 24000 ng·h/mL
AUC [10]: 24000 ng·h/mL
Cmax [11]: 27300 ng/mL
Cmax [12]: 7600 ng/mL
Cmax [13]: 2800 ng/mL
Cmax [14]: 2700 ng/mL
bioavailability [15]: 78%
AUC [16]: 1500 ng·h/mL
half-life [17]: 3.14 h
Vd [18]: 2.04 L/kg
clearance [19]: 9 mL/min/kg
CLint scaled [20]: 22 mL/min/kg
EC50 (Hepatitis C virus [1]): 16 nM
EC50 (Hepatitis C virus [2]): 160 nM
Compound: Fc1cccc(-c2nc3cnn(Cc4ccc(-c5ccc(C(F)(F)F)cc5C(F)(F)F)nc4)cc-3n2)c1F
EC50 [5]: 7940 nM

EC50 (Hepatitis C virus [1]): 5000 nM
Compound: Fc1cccc(F)c1-c1nc2cnn(Cc3cc(-c4ccc(C(F)(F)F)cc4C(F)(F)F)no3)cc-2n1

EC50 (Hepatitis C virus [1]): > 50000 nM
EC50 (Hepatitis C virus [2]): > 50000 nM
Compound: COc1ncc(-c2cc(Cn3cc4nc(-c5cccc(F)c5F)nc-4cn3)on2)cn1

EC50 (Hepatitis C virus [1]): 40 nM
EC50 (Hepatitis C virus [2]): 110 nM
Compound: CCCOc1ccc(-c2cc(Cn3cc4nc(-c5cccc(F)c5F)nc-4cn3)no2)cc1

EC50 (Hepatitis C virus [1]): 24 nM
EC50 (Hepatitis C virus [2]): 70 nM
Compound: Fc1cccc(-c2nc3cnn(Cc4cc(-c5ccc(C(F)(F)F)cc5)no4)cc-3n2)c1F
